Assay results from PubChem BioAssay AID2060892 (Molecular Pharmacology Branch, DTP, NCI, 2025).

Tested on: HOP-62 complex spheroids with HUVEC/MSC, viability
Test: Anticancer human tumor HOP-62 cell line growth inhibition [RAS];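 note: spheroids exposed to agents for seven days before readout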;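 for viability, T/C: 100% = DMSO vehicle control viability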
Conditions: for IC50: curve of first compound; for viability, T/C: stronger effect = lower value
In short: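 Agents were tested in combination matrices in half-log decrements from a top concentration at or near clinical Cmax (10 microM if undetermined). Targets were multi-cell spheroids of tumour lines plus HUVEC and MSC stromal cells.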

[1] = second compound 0.000949 µM, first compound 0.0316 µM
[2] = second compound 0.000949 µM, first compound 0.1 µM
[3] = second compound 0.003 µM, first compound 0.0316 µM
[4] = second compound 0.003 µM, first compound 0.1 µM
[5] = second compound 0.00949 µM, first compound 0.0316 µM
[6] = second compound 0.00949 µM, first compound 0.1 µM
[7] = second compound 0.03 µM, first compound 0.0316 µM
[8] = second compound 0.03 µM, first compound 0.1 µM
[9] = second compound 0.0949 µM, first compound 0.0316 µM
[10] = second compound 0.0949 µM, first compound 0.1 µM
[11] = second compound 0.3 µM, first compound 0.0316 µM
[12] = second compound 0.3 µM, first compound 0.1 µM

With CC(C)n1nc(-c2ccc3oc(N)nc3c2)c2c(N)ncnc21 + CCn1c(-c2cc(N3CCN(C)CC3)cnc2C(C)OC)c2c3cc(ccc31)-c1csc(n1)CC(NC(=O)C1CC1C)C(=O)N1CCCC(N1)C(=O)OCC(C)(C)C2 the IC50 (second compound 0.000949 µM) was 32.8 nM, the IC50 (second compound 0.003 µM) was 15.3 nM and the IC50 (second compound 0.00949 µM) was 8.38 nM. For the same compound, the IC50 (second compound 0.03 µM) was 0.644 nM, the IC50 (second compound 0.0949 µM) was less than 0.316 nM and the IC50 (second compound 0.3 µM) was less than 0.316 nM. For the same compound, the viability, T/C (second compound 0.000949 µM, first compound 0.000316 µM) was 122%, the viability, T/C (second compound 0.000949 µM, first compound 0.001 µM) was 111% and the viability, T/C (second compound 0.000949 µM, first compound 0.00316 µM) was 71.4%. The viability, T/C (second compound 0.000949 µM, first compound 0.01 µM) was 71.8%, the viability, T/C [1] was 59.5% and the viability, T/C [2] was 28.3%. The viability, T/C (second compound 0.003 µM, first compound 0.000316 µM) was 96.2%, the viability, T/C (second compound 0.003 µM, first compound 0.001 µM) was 81.7% and the viability, T/C (second compound 0.003 µM, first compound 0.00316 µM) was 59%. For the same compound, the viability, T/C (second compound 0.003 µM, first compound 0.01 µM) was 65.4%, the viability, T/C [3] was 44.9% and the viability, T/C [4] was 23.2%. It also gave a viability, T/C (second compound 0.00949 µM, first compound 0.000316 µM) of 64.9%, a viability, T/C (second compound 0.00949 µM, first compound 0.001 µM) of 56.1% and a viability, T/C (second compound 0.00949 µM, first compound 0.00316 µM) of 58.6%. The viability, T/C (second compound 0.00949 µM, first compound 0.01 µM) was 48.9%, the viability, T/C [5] was 30.7% and the viability, T/C [6] was 24%. For the same compound, the viability, T/C (second compound 0.03 µM, first compound 0.000316 µM) was 52.5%, the viability, T/C (second compound 0.03 µM, first compound 0.001 µM) was 48.5% and the viability, T/C (second compound 0.03 µM, first compound 0.00316 µM) was 40%. It also gave a viability, T/C (second compound 0.03 µM, first compound 0.01 µM) of 32.6%, a viability, T/C [7] of 21.7% and a viability, T/C [8] of 22.1%. It also gave a viability, T/C (second compound 0.0949 µM, first compound 0.000316 µM) of 38.1%, a viability, T/C (second compound 0.0949 µM, first compound 0.001 µM) of 36.4% and a viability, T/C (second compound 0.0949 µM, first compound 0.00316 µM) of 35.8%. The viability, T/C (second compound 0.0949 µM, first compound 0.01 µM) was 37.5%, the viability, T/C [9] was 20.6% and the viability, T/C [10] was 24.6%. For the same compound, the viability, T/C (second compound 0.3 µM, first compound 0.000316 µM) was 37.8%, the viability, T/C (second compound 0.3 µM, first compound 0.001 µM) was 35% and the viability, T/C (second compound 0.3 µM, first compound 0.00316 µM) was 34.4%. For the same compound, the viability, T/C (second compound 0.3 µM, first compound 0.01 µM) was 27.7%, the viability, T/C [11] was 26.5% and the viability, T/C [12] was 24.8%.
For C[C@@H](NC(=O)c1ncnc(N)c1Cl)c1ncc(C(=O)Nc2cc(C(F)(F)F)c(Cl)cn2)s1 + CCn1c(-c2cc(N3CCN(C)CC3)cnc2C(C)OC)c2c3cc(ccc31)-c1csc(n1)CC(NC(=O)C1CC1C)C(=O)N1CCCC(N1)C(=O)OCC(C)(C)C2, the IC50 (second compound 0.000949 µM) was greater than 10000 nM, the IC50 (second compound 0.003 µM) was greater than 10000 nM and the IC50 (second compound 0.00949 µM) was greater than 10000 nM. It also gave an IC50 (second compound 0.03 µM) greater than 10000 nM, an IC50 (second compound 0.0949 µM) of 342 nM and an IC50 (second compound 0.3 µM) of less than 31.6 nM. For the same compound, the viability, T/C [1] was 111%, the viability, T/C [2] was 119% and the viability, T/C (second compound 0.000949 µM, first compound 0.316 µM) was 93.4%. For the same compound, the viability, T/C (second compound 0.000949 µM, first compound 1 µM) was 115%, the viability, T/C (second compound 0.000949 µM, first compound 3.16 µM) was 114% and the viability, T/C (second compound 0.000949 µM, first compound 10 µM) was 74.6%. For the same compound, the viability, T/C [3] was 107%, the viability, T/C [4] was 101% and the viability, T/C (second compound 0.003 µM, first compound 0.316 µM) was 96.7%. The viability, T/C (second compound 0.003 µM, first compound 1 µM) was 104%, the viability, T/C (second compound 0.003 µM, first compound 3.16 µM) was 94.7% and the viability, T/C (second compound 0.003 µM, first compound 10 µM) was 60.6%. For the same compound, the viability, T/C [5] was 80.9%, the viability, T/C [6] was 99.5% and the viability, T/C (second compound 0.00949 µM, first compound 0.316 µM) was 76.4%. The viability, T/C (second compound 0.00949 µM, first compound 1 µM) was 83.7%, the viability, T/C (second compound 0.00949 µM, first compound 3.16 µM) was 75.9% and the viability, T/C (second compound 0.00949 µM, first compound 10 µM) was 51.3%. The viability, T/C [7] was 65.9%, the viability, T/C [8] was 56.7% and the viability, T/C (second compound 0.03 µM, first compound 0.316 µM) was 62.1%. For the same compound, the viability, T/C (second compound 0.03 µM, first compound 1 µM) was 66.4%, the viability, T/C (second compound 0.03 µM, first compound 3.16 µM) was 47.8% and the viability, T/C (second compound 0.03 µM, first compound 10 µM) was 57%. It also gave a viability, T/C [9] of 46.9%, a viability, T/C [10] of 56.4% and a viability, T/C (second compound 0.0949 µM, first compound 0.316 µM) of 48.2%. The viability, T/C (second compound 0.0949 µM, first compound 1 µM) was 54.4%, the viability, T/C (second compound 0.0949 µM, first compound 3.16 µM) was 38.6% and the viability, T/C (second compound 0.0949 µM, first compound 10 µM) was 55%. The viability, T/C [11] was 47.7%, the viability, T/C [12] was 49.6% and the viability, T/C (second compound 0.3 µM, first compound 0.316 µM) was 43.9%. The viability, T/C (second compound 0.3 µM, first compound 1 µM) was 41.3%, the viability, T/C (second compound 0.3 µM, first compound 3.16 µM) was 45.4% and the viability, T/C (second compound 0.3 µM, first compound 10 µM) was 47.3%.
